Test results published in patent publication US9428519B2, “Acylated derivative of homoharringtonine, preparation method therefor, and application thereof” (HANGZHOU BENSHENG PHARMACEUTICAL CO., LTD., priority 2011, dated 2016).

Tested on: Kasumi-1 transplanted tumor of leukemia
Assay: Inhibition of transplanted tumor of leukemia in NOD/SCID mice
Type: in vivo
Conditions: for Mass of tumor / Tumor Inhibition rate (%): Kasumi-1 in NOD/SCID mice, three times a day, 10 days, Day 31
Description: Leukemia cell lines: Kasumi-1 (acute myeloid leukemia M2 type, AML-M2)
Animal: NOD/SCID mice (multiple immunodeficiency mice), 8 weeks, female, purchased from Shanghai Laboratory Animal Center of Chinese Academy of Sciences, China.
BS-HH-002, wherein BS-HH-002-0.1 indicates a dosage of 0.1 mg/kg each time, and BS-HH-002-0.3 indicates a dosage of 0.3 mg/kg each time.
Under sterile conditions, the above tumor cells in the logarithmic growth phase are collected and injected in an amount of 5×10^7/0.2 ml/mice (cell viability>95%) by subcutaneous injection into the right subaxillary of NOD/SCID mice, thus establishing an NOD/SCID mice model bearing transplanted tumor of leukemia. The mice are administered on the third day after the inoculation, wherein the experimental groups are intragastrically administered in an experimentally designed amount and the negative control group is intragastrically administered with sterile water. Each mouse is intragastrically administered three times a day in 0.4 ml each time, at 8:00, 14:00 and 20:00 with 6-hour intervals, and is successively administered for 10 days. The day before administration is Day 0 and the weight and tumor size are determined approximately every 5 days to produce a dynamic plot on weight and tumor growth. On Day 31, the mice are dissected and the tumors are taken out and weighed. The tumor inhibition rate (%) after the application of medicament is determined based on the tumor inhibition rate of the control group being zero.
The values determined are presented as mean±standard error (M±SD). The experimental data for each group are analyzed by the One-way ANOVA method of SPSS 18.0 Statistical Software, and p<0.05 is deemed as having statistically significant difference.

In the case of `COC(=O)C[C@](O)(CCCC(C)(C)OC(C)=O)C(=O)O[C@@H]1C(OC)=C[C@]23CCCN2CCc2cc4c(cc2[C@H]13)OCO4` [BS-HH-002, 6-acetylhomoharringtonine], the “Mass of tumor” value (0.1 mg/kg/time intragastric) is reported as 1.67 ± 0.36 g, the “Tumor Inhibition rate (%)” value (0.1 mg/kg/time intragastric) is reported as 43.31% and the “Mass of tumor” value (0.3 mg/kg/time intragastric) is reported as 1.60 ± 0.75 g. The “Tumor Inhibition rate (%)” value (0.3 mg/kg/time intragastric) was 45.74%, the “tumor inhibition effect on transplanted tumor of leukemia” value (NOD/SCID mice, FIG. 5 tumor growth curve) was “remarkable tumor inhibition effect” and the “effect on weight of the transplanted tumor of leukemia” value (NOD/SCID mice, FIG. 6) was “substantially reduced”. For the same molecule, the “inhibition rate of transplanted tumor of leukemia” value (NOD/SCID mice, dosage of both 0.1 and 0.3 mg/kg) was “over 40%”.
